According to publication PMC6719172, “Inhibition of CpLIP2 Lipase Hydrolytic Activity by Four Flavonols (Galangin, Kaempferol, Quercetin, Myricetin) Compared to Orlistat and Their Binding Mechanisms Studied by Quenching of Fluorescence” (Molecules, 2019):

Legend:
CpLIP2 lipase [1] = biological target: T1, CpLIP2 lipase (Candida parapsilosis, UniProt Q8NIN8); experiment: Quenching of CpLIP2 intrinsic tryptophan fluorescence by flavonols (Stern–Volmer, Lehrer, van't Hoff analysis); assay type: binding; details: for KSV (Stern–Volmer quenching constant): CpLIP2 2.5 µM, pH 7.0, flavonol 2.5–25 µM (GAL 2.5–17.5 µM); for Kq (bimolecular quenching constant): Kq = KSV/τ0, τ0 1.59 ns; for KSV (accessible), Stern–Volmer quenching constant of the exposed W residues / fa (fraction of accessible W residues to the quencher): Lehrer equation; for ΔG (free energy change): ΔG = ΔH − TΔS; for Kd: Kd (dissociation constant); for order of magnitude of Kq: all temperatures of Table 1; for ΔS (entropy changes): van't Hoff plot, 298–328 K
Excerpt: The fluorescence quenching spectra of CpLIP2 lipase submitted to increasing concentrations of GAL, KAE, QUE and MYR are shown in Figure 3. A remarkable quenching of the CpLIP2 fluorescence emission was observed. […] The fluorescence quenching is usually described by the linear Stern–Volmer Equations (2) and (3):(2) F0/F = 1 + Ksv [Q] = 1 + Kqτ0 [Q] (3) Kq=Ksv/τ0 where F0 and F are the intrinsic fluorescence intensities of CpLIP2 lipase (fluorophore) in absence or presence of quencher (flavonol), respectively. Kq is the bimolecular quenching constant, τ0 is the lifetime of the fluorophore in the absence of the quencher, [Q] is the concentration of the quencher, and KSV is the Stern–Volmer quenching constant.
The mechanism of quenching, occurring between CpLIP2 lipase and flavonols, was characterized by determining the values of Kq and the thermodynamic parameters by varying the temperature. […] In both cases, the bimolecular quenching constant Kq can be calculated by the ratio between KSV and τ0, itself determined at 1.59 ns for Human Pancreatic Lipase.
The inaccessible or buried residues are responsible for the remaining fluorescence, which is probably independent of the quencher concentration. […] An up-down curvature towards the x-axis has been shown for the four flavonols (Figure 4), indicating the presence of two populations of fluorophores, part of which would not be accessible. That means that some W residues are buried inside the lipase structure and that other residues are exposed to the solvent. Therefore, data were analyzed through the Lehrer equation, also known as the modified (or non-linear) Stern–Volmer Equation (4):(4) F0/ F0−F = 1/ fa Ksv 1/ [Q] +1/ fa
For static quenching, the equilibrium between free and bound CpLIP2 lipase, when the ligand molecules bind independently to equivalent sites of macromolecules, can be described by the following Equation (5):(5) log10F0−F/F=nlog10[Q]+log10Ka where Ka is the binding constant and n the number of binding sites per CpLIP2 molecule.
The results were determined for all flavonols tested at different temperatures from the plots of log10 F0 − F/F versus log10 [Q] and listed in Table 2. The plots show a linear relationship from which the slope equal to n and intercept on y-axis equal to log10 Ka. For the four flavonols, the Ka values increased when the temperatures increased. In addition, the n values were less than 1.0 in all cases and increased according to the temperature. […] Values of the dissociation constant of complexes were deduced from the Stern–Volmer Equation (6) and (7), for which Kd is expressed as the inverse of fa Ksv product. (6) F0/ F0−F= Kd 1/ [Q] +1 (7) Kd= 1/fa Ksv
Thermodynamic parameters were calculated to determine the type of binding forces that contribute in the CpLIP2 lipase–flavonol interactions. […] Both the enthalpy (ΔH) and entropy changes (ΔS) can be estimated from the following van′t Hoff Equation (8):(8) Ln Ka = − ΔH /RT + ΔS /R
The values of Gibbs binding free energy change (ΔG) are calculated from the following Equation (9):(9) ΔG= ΔH − TΔS
To fill up the volume of 300 µL by well, 190 µL of sodium phosphate buffer solution (75 mM, pH 7.0) was added to each well to obtain final concentration at 50 mM. Then, 100 µL of ethanol absolute–water ultrapure (2:8, v/v) solution was added to obtain a final amount of ethanol […] in the well of 300 µL. […] The final concentration of ethanol during the experiments never exceeded 0.07% (v/v). The last step was to add 10 µL of lipase after to have optimized the final concentration of CpLIP2 equal to 2.5 µM for all our assays, giving the optimal fluorescence intensity for all measurements. The measurement of intrinsic fluorescence started after mechanical shaking for 30 s inside the multi-plate reader. […]

CpLIP2 lipase [2] = biological target: T1, CpLIP2 lipase; experiment: Fluorescence resonance energy transfer between CpLIP2 and flavonols (Förster theory); assay type: binding; details: for E (energy transfer efficiency) / J (overlap integral) / R0 (Förster distance) / r (distance between acceptor and donor) / r/R0: 2.5 µM, 308 K, pH 7.0; for R0 (Förster distance): values in Å; for r (distance between acceptor and donor): values in Å
Excerpt: Fluorescence emission spectra of CpLIP2 lipase overlap the UV absorption spectrum of each flavonol studied, that may induce fluorescence resonance energy transfer (FRET) governed by the binding distance r between the protein behaving as energy donor and the flavonol energy acceptor. The binding distance r can be calculated via Förster theory with the following Equations (10) and (11):(10) E=1−F/ F0=R06/ R06+r^6 where E is the energy transfer efficiency, which is the photons fraction absorbed and transferred by the donor to the acceptor, F and F0 are the fluorescence intensities of donor (CpLIP2) in the presence or absence of acceptor (flavonol) at the same concentrations. The parameter r is the distance between acceptor and donor, and R0 is the Förster distance, which is the critical energy transfer distance when 50% of the excitation energy is transferred from the donor to the acceptor. […] The value of R0 ranges from 20–90 Å for biological macromolecules.

T1 sequence (Q8NIN8 entry or part of it): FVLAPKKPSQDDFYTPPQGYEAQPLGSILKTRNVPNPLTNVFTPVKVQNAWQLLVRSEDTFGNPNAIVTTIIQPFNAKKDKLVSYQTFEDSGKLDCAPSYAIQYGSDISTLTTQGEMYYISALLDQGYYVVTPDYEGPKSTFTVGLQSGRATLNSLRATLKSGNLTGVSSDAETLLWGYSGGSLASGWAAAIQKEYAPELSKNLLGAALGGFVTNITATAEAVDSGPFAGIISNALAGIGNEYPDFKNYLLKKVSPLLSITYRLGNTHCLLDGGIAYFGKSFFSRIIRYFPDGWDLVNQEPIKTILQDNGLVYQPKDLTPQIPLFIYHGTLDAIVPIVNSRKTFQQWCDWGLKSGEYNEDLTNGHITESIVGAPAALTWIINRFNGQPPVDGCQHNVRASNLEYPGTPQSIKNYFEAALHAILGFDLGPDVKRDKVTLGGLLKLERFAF

O=c1c(O)c(-c2ccc(O)cc2)oc2cc(O)cc(O)c12 [KAE, kaempferol]
Ka (association constant) (CpLIP2 lipase [1]; 298 K): 458 ± 2. L·mol^−1
n (number of binding sites) (CpLIP2 lipase [1]; 298 K): 0.63 ± 0.07
KSV (Stern–Volmer quenching constant) (CpLIP2 lipase [1]; 298 K): 2.1 ± 0.2 × 10^4 L·mol^−1
Kq (bimolecular quenching constant) (CpLIP2 lipase [1]; 298 K): 1.3e+13 L/mol/s
KSV (accessible), Stern–Volmer quenching constant of the exposed W residues (CpLIP2 lipase [1]; 298 K): 140000 L/mol
fa (fraction of accessible W residues to the quencher) (CpLIP2 lipase [1]; 298 K): 0.45
ΔG (free energy change) (CpLIP2 lipase [1]; 298 K): -39.3 kJ/mol
Ka (association constant) (CpLIP2 lipase [1]; 308 K): 476 ± 4 L/mol
n (number of binding sites) (CpLIP2 lipase [1]; 308 K): 0.63 ± 0.07
KSV (Stern–Volmer quenching constant) (CpLIP2 lipase [1]; 308 K): 1.9 ± 0.7 × 10^4 L·mol^−1
Kq (bimolecular quenching constant) (CpLIP2 lipase [1]; 308 K): 1.2e+13 L/mol/s
KSV (accessible), Stern–Volmer quenching constant of the exposed W residues (CpLIP2 lipase [1]; 308 K): 170000 L/mol
fa (fraction of accessible W residues to the quencher) (CpLIP2 lipase [1]; 308 K): 0.43
ΔG (free energy change) (CpLIP2 lipase [1]; 308 K): -40.6 kJ/mol
Ka (association constant) (CpLIP2 lipase [1]; 318 K): 862 ± 3 L/mol
n (number of binding sites) (CpLIP2 lipase [1]; 318 K): 0.69 ± 0.09
KSV (Stern–Volmer quenching constant) (CpLIP2 lipase [1]; 318 K): 1.8 ± 0.7 × 10^4 L·mol^−1
Kq (bimolecular quenching constant) (CpLIP2 lipase [1]; 318 K): 1.1e+13 L/mol/s
KSV (accessible), Stern–Volmer quenching constant of the exposed W residues (CpLIP2 lipase [1]; 318 K): 150000 L/mol
fa (fraction of accessible W residues to the quencher) (CpLIP2 lipase [1]; 318 K): 0.42
ΔG (free energy change) (CpLIP2 lipase [1]; 318 K): -41.9 kJ/mol
Ka (association constant) (CpLIP2 lipase [1]; 328 K): 1290 ± 2 L/mol
n (number of binding sites) (CpLIP2 lipase [1]; 328 K): 0.75 ± 0.07
KSV (Stern–Volmer quenching constant) (CpLIP2 lipase [1]; 328 K): 1.6 ± 0.6 × 10^4 L·mol^−1
Kq (bimolecular quenching constant) (CpLIP2 lipase [1]; 328 K): 1e+13 L/mol/s
KSV (accessible), Stern–Volmer quenching constant of the exposed W residues (CpLIP2 lipase [1]; 328 K): 150000 L/mol
fa (fraction of accessible W residues to the quencher) (CpLIP2 lipase [1]; 328 K): 0.34
ΔG (free energy change) (CpLIP2 lipase [1]; 328 K): -43.3 kJ/mol
Kd (CpLIP2 lipase [1]; 298 K): 16 ± 3 µM
Kd (CpLIP2 lipase [1]; 308 K): 14 ± 5 µM
Kd (CpLIP2 lipase [1]; 318 K): 16 ± 7 µM
Kd (CpLIP2 lipase [1]; 328 K): 19 ± 9 µM
order of magnitude of Kq (CpLIP2 lipase [1]): ~10^13 L mol^−1 s^−1
ΔS (entropy changes) (CpLIP2 lipase [1]): 0.13 kJ·mol^−1·K^−1
percentage of transfer efficiency (CpLIP2 lipase [2]): 12%
E (energy transfer efficiency) (CpLIP2 lipase [2]): 0.12
J (overlap integral) (CpLIP2 lipase [2]): 10 × 10^14 nm^4·cm^−1·M^−1
R0 (Förster distance) (CpLIP2 lipase [2]): 36.0 Å
r (distance between acceptor and donor) (CpLIP2 lipase [2]): 50.1 Å
r/R0 (CpLIP2 lipase [2]): 1.4

O=c1c(O)c(-c2cc(O)c(O)c(O)c2)oc2cc(O)cc(O)c12 [MYR, myricetin]
Ka (association constant) (CpLIP2 lipase [1]; 298 K): 45.21 ± 1 L/mol
n (number of binding sites) (CpLIP2 lipase [1]; 298 K): 0.43 ± 0.02
KSV (Stern–Volmer quenching constant) (CpLIP2 lipase [1]; 298 K): 1.6 ± 0.1 × 10^4 L·mol^−1
Kq (bimolecular quenching constant) (CpLIP2 lipase [1]; 298 K): 1e+13 L/mol/s
KSV (accessible), Stern–Volmer quenching constant of the exposed W residues (CpLIP2 lipase [1]; 298 K): 290000 L/mol
fa (fraction of accessible W residues to the quencher) (CpLIP2 lipase [1]; 298 K): 0.34
ΔG (free energy change) (CpLIP2 lipase [1]; 298 K): -26.2 kJ/mol
Ka (association constant) (CpLIP2 lipase [1]; 308 K): 53.09 ± 2 L/mol
n (number of binding sites) (CpLIP2 lipase [1]; 308 K): 0.46 ± 0.03
KSV (Stern–Volmer quenching constant) (CpLIP2 lipase [1]; 308 K): 1.3 ± 0.5 × 10^4 L·mol^−1
Kq (bimolecular quenching constant) (CpLIP2 lipase [1]; 308 K): 8.2e+12 L/mol/s
KSV (accessible), Stern–Volmer quenching constant of the exposed W residues (CpLIP2 lipase [1]; 308 K): 280000 L/mol
fa (fraction of accessible W residues to the quencher) (CpLIP2 lipase [1]; 308 K): 0.32
ΔG (free energy change) (CpLIP2 lipase [1]; 308 K): -27.0 kJ/mol
Ka (association constant) (CpLIP2 lipase [1]; 318 K): 44.79 ± 1 L/mol
n (number of binding sites) (CpLIP2 lipase [1]; 318 K): 0.44 ± 0.02
KSV (Stern–Volmer quenching constant) (CpLIP2 lipase [1]; 318 K): 1.2 ± 0.4 × 10^4 L·mol^−1
Kq (bimolecular quenching constant) (CpLIP2 lipase [1]; 318 K): 7.7e+12 L/mol/s
KSV (accessible), Stern–Volmer quenching constant of the exposed W residues (CpLIP2 lipase [1]; 318 K): 320000 L/mol
fa (fraction of accessible W residues to the quencher) (CpLIP2 lipase [1]; 318 K): 0.30
ΔG (free energy change) (CpLIP2 lipase [1]; 318 K): -27.9 kJ/mol
Ka (association constant) (CpLIP2 lipase [1]; 328 K): 97.14 ± 2 L/mol
n (number of binding sites) (CpLIP2 lipase [1]; 328 K): 0.51 ± 0.09
KSV (Stern–Volmer quenching constant) (CpLIP2 lipase [1]; 328 K): 1.4 ± 0.5 × 10^4 L·mol^−1
Kq (bimolecular quenching constant) (CpLIP2 lipase [1]; 328 K): 9e+12 L/mol/s
KSV (accessible), Stern–Volmer quenching constant of the exposed W residues (CpLIP2 lipase [1]; 328 K): 250000 L/mol
fa (fraction of accessible W residues to the quencher) (CpLIP2 lipase [1]; 328 K): 0.33
ΔG (free energy change) (CpLIP2 lipase [1]; 328 K): -28.8 kJ/mol
Kd (CpLIP2 lipase [1]; 298 K): 10 ± 1 µM
Kd (CpLIP2 lipase [1]; 308 K): 11 ± 4 µM
Kd (CpLIP2 lipase [1]; 318 K): 10 ± 4 µM
Kd (CpLIP2 lipase [1]; 328 K): 12 ± 7 µM
fa (fraction of accessible W residues) (CpLIP2 lipase [1]; across temperatures): 0.33
n (number of binding sites) (CpLIP2 lipase [1]; across temperatures): 0.43
order of magnitude of Kq (CpLIP2 lipase [1]): ~10^13 L mol^−1 s^−1
ΔS (entropy changes) (CpLIP2 lipase [1]): 0.10 kJ·mol^−1·K^−1
percentage of transfer efficiency (CpLIP2 lipase [2]): 23%
E (energy transfer efficiency) (CpLIP2 lipase [2]): 0.23
J (overlap integral) (CpLIP2 lipase [2]): 15 × 10^14 nm^4·cm^−1·M^−1
R0 (Förster distance) (CpLIP2 lipase [2]): 38.4 Å
r (distance between acceptor and donor) (CpLIP2 lipase [2]): 46.7 Å
r/R0 (CpLIP2 lipase [2]): 1.2
